Measurements: patent US20100144700A1, “HETEROCYCLIC-CARBONYL-DIAZABICYCLOALKANES AS MODULATORS OF THE NEURONAL NICOTINIC ACETYLCHOLINE ALPHA 4 BETA 2, SUBTYPE RECEPTOR FOR THE TREATMENT OF CNS RELATED DISORDERS” (TARGACEPT, INC., priority 2007, published 2010)
Read-outs that look alike come from different tables or passages of the source.

Tests used:
α7 nAChR Subtype = target: T1, α7 nAChR Subtype (Rattus norvegicus, UniProt Q05941); assay: Radioligand binding ([3H]MLA) at α7 nAChR subtype, rat hippocampus membranes; HTS at 5 μM; details: for inhibition at 5 µM: 5 μM compound, 5 nM 3H-MLA, read-out: α7 high throughput screening (HTS) binding
T1 construct: The hippocampus was removed and placed in 10 volumes (weight:volume) of ice-cold preparative buffer; from tissue; host or cells: rat hippocampus membranes
Procedure: Rats (female, Sprague-Dawley), weighing 150-250 g, were maintained on a 12 h light/dark cycle and were allowed free access to water and food supplied by PMI Nutrition International, Inc. Animals were anesthetized with 70% CO2, then decapitated. Brains were removed and placed on an ice-cold platform. The hippocampus was removed and placed in 10 volumes (weight:volume) of ice-cold preparative buffer (137 mM NaCl, 10.7 mM KCl, 5.8 mM KH2PO4, 8 mM Na2HPO4, 20 mM HEPES (free acid), 5 mM iodoacetamide, 1.6 mM EDTA, pH 7.4); PMSF, dissolved in methanol to a final concentration of 100 μM, was added and the tissue suspension was homogenized by Polytron. The homogenate was centrifuged at 18,000×g for 20 min at 4° C. and the resulting pellet was re-suspended in 10 volumes of ice-cold water. After 60 min incubation on ice, a new pellet was collected by centrifugation at 18,000×g for 20 min at 4° C. The final pellet was re-suspended in 10 volumes of buffer and stored at −20° C. On the day of the assay, tissue was thawed, centrifuged at 18,000×g for 20 min, and then re-suspended in ice-cold PBS (Dulbecco's Phosphate Buffered Saline, 138 mM NaCl, 2.67 mM KCl, 1.47 mM KH2PO4, 8.1 mM Na2HPO4, 0.9 mM CaCl2, 0.5 mM MgCl2, Invitrogen/Gibco, pH 7.4) to a final concentration of approximately 2 mg protein/mL. Protein was determined by the method of Lowry et al., J. Biol. Chem. 193: 265 (1951), using bovine serum albumin as the standard.
The binding of [^3H]MLA was measured using a modification of the methods of Davies et al., Neuropharmacol. 38: 679 (1999). [^3H]MLA (Specific Activity=25-35 Ci/mmol) was obtained from Tocris. The binding of [^3H]MLA was determined using a 2 h incubation at 21° C. Incubations were conducted in 48-well micro-titre plates and contained about 200 μg of protein per well in a final incubation volume of 300 μL. The incubation buffer was PBS and the final concentration of [^3H]MLA was 5 nM. The binding reaction was terminated by filtration of the protein containing bound ligand onto glass fiber filters (GF/B, Brandel) using a Brandel Tissue Harvester at room temperature. Filters were soaked in de-ionized water containing 0.33% polyethyleneimine to reduce non-specific binding. Each filter was washed with PBS (3×1 mL) at room temperature. Non-specific binding was determined by inclusion of 50 μM non-radioactive MLA in selected wells.
[…] Each concentration was replicated in triplicate. […] […] Pharmacol. 22: 3099-3108 (1973).

Human α4β2 = Human α4β2 (Homo sapiens, UniProt P17787+P43681); assay: Binding at human α4β2 subtype (Table 1)
α4β2 nAChR Subtype = target: T2, α4β2 nAChR Subtype (Rattus norvegicus, UniProt P09483+P12390); assay: Radioligand binding ([3H]nicotine) at rat α4β2 nAChR subtype, rat cerebral cortex membranes
T2 construct: The cerebral cortex was removed and placed in 20 volumes (weight:volume) of ice-cold preparative buffer; from tissue; host or cells: rat cerebral cortex membranes
Procedure: Rats (female, Sprague-Dawley), weighing 150-250 g, were maintained on a 12 h light/dark cycle and were allowed free access to water and food supplied by PMI Nutrition International, Inc. Animals were anesthetized with 70% CO2, then decapitated. Brains were removed and placed on an ice-cold platform. The cerebral cortex was removed and placed in 20 volumes (weight:volume) of ice-cold preparative buffer (137 mM NaCl, 10.7 mM KCl, 5.8 mM KH2PO4, 8 mM Na2HPO4, 20 mM HEPES (free acid), 5 mM iodoacetamide, 1.6 mM EDTA, pH 7.4); PMSF, dissolved in methanol to a final concentration of 100 μM, was added and the suspension was homogenized by Polytron. The homogenate was centrifuged at 18,000×g for 20 min at 4° C. and the resulting pellet was re-suspended in 20 volumes of ice-cold water. After 60 min incubation on ice, a new pellet was collected by centrifugation at 18,000×g for 20 min at 4° C. The final pellet was re-suspended in 10 volumes of buffer and stored at −20° C. On the day of the assay, tissue was thawed, centrifuged at 18,000×g for 20 min, and then re-suspended in ice-cold PBS (Dulbecco's Phosphate Buffered Saline, 138 mM NaCl, 2.67 mM KCl, 1.47 mM KH2PO4, 8.1 mM Na2HPO4, 0.9 mM CaCl2, 0.5 mM MgCl2, Invitrogen/Gibco, pH 7.4) to a final concentration of approximately 4 mg protein/mL. Protein was determined by the method of Lowry et al., J. Biol. Chem. 193: 265 (1951), using bovine serum albumin as the standard.
The binding of [^3H]nicotine was measured using a modification of the methods of Romano et al., Science 210: 647 (1980) and Marks et al., Mol. Pharmacol. 30: 427 (1986). The [^3H]nicotine (Specific Activity=81.5 Ci/mmol) was obtained from NEN Research Products. The binding of [^3H]nicotine was measured using a 3 h incubation at 4° C. Incubations were conducted in 48-well micro-titre plates and contained about 400 μg of protein per well in a final incubation volume of 300 μL. The incubation buffer was PBS and the final concentration of [^3H]nicotine was 5 nM. The binding reaction was terminated by filtration of the protein containing bound ligand onto glass fiber filters (GF/B, Brandel) using a Brandel Tissue Harvester at 4° C. Filters were soaked in de-ionized water containing 0.33% polyethyleneimine to reduce non-specific binding. Each filter was washed with ice-cold buffer (3×1 mL). Non-specific binding was determined by inclusion of 10 μM non-radioactive L-nicotine (Acros Organics) in selected wells.
The inhibition of [^3H]nicotine binding by test compounds was determined by including seven different concentrations of the test compound in selected wells. Each concentration was replicated in triplicate. IC50 values were estimated as the concentration of compound that inhibited 50 percent of specific [^3H]nicotine binding. Inhibition constants (Ki values), reported in nM, were calculated from the IC50 values using the method of Cheng et al., Biochem. Pharmacol. 22: 3099 (1973).

[1] = [3H]nicotine 5 nM, rat cortex, read-out: Rat α4β2 Ki

T1 sequence (Q05941 23-502): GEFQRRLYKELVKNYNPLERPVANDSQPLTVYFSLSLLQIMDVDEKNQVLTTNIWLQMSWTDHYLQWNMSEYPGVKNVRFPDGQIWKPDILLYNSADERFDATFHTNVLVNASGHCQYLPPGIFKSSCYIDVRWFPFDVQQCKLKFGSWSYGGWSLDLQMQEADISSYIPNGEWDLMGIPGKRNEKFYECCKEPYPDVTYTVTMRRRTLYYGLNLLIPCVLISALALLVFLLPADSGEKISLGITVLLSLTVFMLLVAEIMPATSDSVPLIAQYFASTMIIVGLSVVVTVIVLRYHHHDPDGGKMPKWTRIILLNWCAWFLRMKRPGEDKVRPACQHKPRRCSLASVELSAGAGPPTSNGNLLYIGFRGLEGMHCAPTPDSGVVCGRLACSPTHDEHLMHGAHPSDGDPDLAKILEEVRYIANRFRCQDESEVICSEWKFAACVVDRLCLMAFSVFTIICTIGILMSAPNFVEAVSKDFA
T2 sequence (P09483 31-630): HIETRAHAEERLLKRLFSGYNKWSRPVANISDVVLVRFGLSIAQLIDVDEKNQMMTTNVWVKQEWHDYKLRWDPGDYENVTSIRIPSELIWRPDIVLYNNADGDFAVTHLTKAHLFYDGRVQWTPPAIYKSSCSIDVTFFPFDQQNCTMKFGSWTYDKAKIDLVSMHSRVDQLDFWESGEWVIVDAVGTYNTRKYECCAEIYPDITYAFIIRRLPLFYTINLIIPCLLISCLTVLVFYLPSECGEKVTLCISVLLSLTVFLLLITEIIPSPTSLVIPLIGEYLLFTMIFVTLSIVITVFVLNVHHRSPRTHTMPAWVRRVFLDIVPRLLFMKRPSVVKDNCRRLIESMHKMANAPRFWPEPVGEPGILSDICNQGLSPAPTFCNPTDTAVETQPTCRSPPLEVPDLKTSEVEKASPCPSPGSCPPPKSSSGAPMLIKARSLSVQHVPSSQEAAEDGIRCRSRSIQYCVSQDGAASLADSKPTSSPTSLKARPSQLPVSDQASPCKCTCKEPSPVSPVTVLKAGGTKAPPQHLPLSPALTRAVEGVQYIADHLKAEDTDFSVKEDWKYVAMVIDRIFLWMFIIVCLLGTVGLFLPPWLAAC
T2 sequence (P12390 25-500): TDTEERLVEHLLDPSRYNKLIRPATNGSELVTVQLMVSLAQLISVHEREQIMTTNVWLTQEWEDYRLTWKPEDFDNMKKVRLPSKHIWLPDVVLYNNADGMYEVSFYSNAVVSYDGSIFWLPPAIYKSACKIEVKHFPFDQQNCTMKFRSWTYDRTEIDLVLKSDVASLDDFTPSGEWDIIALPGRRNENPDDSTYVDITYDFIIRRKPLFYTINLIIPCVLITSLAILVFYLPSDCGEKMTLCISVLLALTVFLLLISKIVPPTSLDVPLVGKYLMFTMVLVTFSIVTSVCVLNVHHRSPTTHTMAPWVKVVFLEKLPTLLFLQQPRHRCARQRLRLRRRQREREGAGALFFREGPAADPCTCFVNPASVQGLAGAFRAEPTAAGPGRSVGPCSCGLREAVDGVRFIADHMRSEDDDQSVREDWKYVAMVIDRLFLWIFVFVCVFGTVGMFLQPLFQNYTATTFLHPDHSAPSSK
Sequence of Human α4β2 (P43681 29-627 limits assumed): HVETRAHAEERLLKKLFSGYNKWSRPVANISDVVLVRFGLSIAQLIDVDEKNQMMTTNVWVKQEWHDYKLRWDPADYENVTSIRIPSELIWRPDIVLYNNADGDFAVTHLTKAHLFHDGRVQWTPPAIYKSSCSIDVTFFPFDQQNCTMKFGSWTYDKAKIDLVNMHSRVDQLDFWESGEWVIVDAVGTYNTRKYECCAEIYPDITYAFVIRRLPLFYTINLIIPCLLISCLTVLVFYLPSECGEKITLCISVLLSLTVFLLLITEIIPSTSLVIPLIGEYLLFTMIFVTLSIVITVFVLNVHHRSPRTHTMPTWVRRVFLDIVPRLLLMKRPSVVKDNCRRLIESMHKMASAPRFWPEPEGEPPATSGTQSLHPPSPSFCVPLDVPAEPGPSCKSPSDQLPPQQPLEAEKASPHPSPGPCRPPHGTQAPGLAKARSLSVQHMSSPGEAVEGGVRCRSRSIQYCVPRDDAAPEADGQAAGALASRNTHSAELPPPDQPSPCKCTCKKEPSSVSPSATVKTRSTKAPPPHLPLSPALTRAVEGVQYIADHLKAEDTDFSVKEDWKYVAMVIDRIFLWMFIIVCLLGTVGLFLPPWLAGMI
Sequence of Human α4β2 (P17787 26-502): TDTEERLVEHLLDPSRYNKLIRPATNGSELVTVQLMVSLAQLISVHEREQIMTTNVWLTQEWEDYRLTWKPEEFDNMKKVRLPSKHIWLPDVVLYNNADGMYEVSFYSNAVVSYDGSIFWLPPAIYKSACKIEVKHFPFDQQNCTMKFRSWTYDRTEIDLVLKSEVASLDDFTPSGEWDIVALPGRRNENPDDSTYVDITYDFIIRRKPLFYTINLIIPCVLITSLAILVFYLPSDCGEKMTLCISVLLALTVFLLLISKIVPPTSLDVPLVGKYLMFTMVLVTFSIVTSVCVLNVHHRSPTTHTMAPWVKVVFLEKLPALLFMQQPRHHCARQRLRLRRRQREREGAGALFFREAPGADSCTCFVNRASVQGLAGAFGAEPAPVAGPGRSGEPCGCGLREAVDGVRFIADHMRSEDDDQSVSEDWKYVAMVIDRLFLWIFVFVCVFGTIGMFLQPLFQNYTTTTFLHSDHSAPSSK

| Compound | inhibition at 5 µM (α7 nAChR Subtype) [%] | Ki (Human α4β2; read-out: Human α4β2 Ki) [nM] | Ki (α4β2 nAChR Subtype) [nM] | Ki (α7 nAChR Subtype; [3H]MLA 5 nM, rat hippocampus) [nM] | Ki (α4β2 nAChR Subtype; [1]) [nM] | Ki (Human α4β2) [nM] |
| --- | --- | --- | --- | --- | --- | --- |
| O=C(c1cnco1)N1C[C@@H]2CN[C@@H](C2)C1 | ≤ 50 | 85.2 | 70.1 |  |  |  |
| O=C(c1cc(Cl)co1)N1C[C@@H]2CN[C@@H](C2)C1 | ≤ 50 | 41.4 | 31.2 |  |  |  |
| O=C(c1ccco1)N1C[C@H]2CN[C@H](C2)C1 | ≤ 50 | 13.1 | 10.8 |  |  |  |
| Cc1ncoc1C(=O)N1CCC2NCC2C1 (stereo not drawn) | ≤ 50 | 792 |  |  |  |  |
| O=C(c1cc(Br)no1)N1C[C@H]2CN[C@H](C2)C1 | ≤ 50 | 1.8 | 3.5 |  |  |  |
| O=C(c1ccc(F)o1)N1C[C@H]2CN[C@H](C2)C1 | ≤ 50 | 6.9 | 8.5 |  |  |  |
| Cc1nocc1C(=O)N1C[C@H]2CN[C@H](C2)C1 | ≤ 50 | 54.9 | 56.7 |  |  |  |
| O=C(c1ccco1)N1C[C@@H]2CN[C@@H](C2)C1 |  | 16.9 | 40.9 | 1020 |  |  |
| O=C(c1ccc(Br)o1)N1CC2CNC(C2)C1 (stereo not drawn) | ≤ 50 | 0.8 | 14.5 |  |  |  |
| Cc1ncoc1C(=O)N1CC2CNCCC21 (stereo not drawn) | ≤ 50 | 515 |  |  |  |  |
| O=C(c1ccncc1)N1CC2CNCC1C2 (stereo not drawn) | ≤ 50 | 132 |  |  | 317 |  |
| Cc1occc1C(=O)N1C[C@H]2CN[C@H](C2)C1 | ≤ 50 | 10.9 | 17.3 |  |  |  |
| O=C(c1ccco1)N1CCC2CNCC21 (stereo not drawn) | ≤ 50 | 851 |  |  | 599 |  |
| O=C(c1ccc(Br)o1)N1C[C@H]2CN[C@H](C2)C1 | ≤ 50 | 6.8 | 14.4 |  |  |  |
| Cc1cc(C(=O)N2C[C@H]3CN[C@H](C3)C2)no1 | ≤ 50 | 17.1 | 14.8 |  |  |  |
| COc1cc(C(=O)N2C[C@@H]3CN[C@@H](C3)C2)on1 | ≤ 50 |  |  |  | 367 | 95.4 |
| O=C(c1ccco1)N1CC2CNCC1C2 (stereo not drawn) | ≤ 50 | 217 |  |  |  |  |
| Cc1cc(C(=O)N2C[C@@H]3CN[C@@H](C3)C2)no1 | ≤ 50 | 503 |  |  | 853 |  |

| Compound | inhibition at 5 µM (α7 nAChR Subtype) [%] | Ki (Human α4β2; read-out: Human α4β2 Ki) [nM] | Ki (α4β2 nAChR Subtype) [nM] | Ki (α7 nAChR Subtype; [3H]MLA 5 nM, rat hippocampus) [nM] | Ki (α4β2 nAChR Subtype; [1]) [nM] | Ki (Human α4β2) [nM] |
| --- | --- | --- | --- | --- | --- | --- |
| COc1cc(C(=O)N2CC3CNCC2C3)on1 (stereo not drawn) | ≤ 50 | 306 |  |  | 195 |  |
| O=C(c1cccnc1)N1CC2CNC(C2)C1 (stereo not drawn) | ≤ 50 | 359 |  |  |  |  |
| Cc1ccoc1C(=O)N1CC2CNCC1C2 (stereo not drawn) | ≤ 50 |  |  |  | 139 | 95.2 |
| O=C(c1ccno1)N1C[C@@H]2CN[C@@H](C2)C1 | ≤ 50 | 34.5 | 26.8 |  |  |  |
| Cc1ccoc1C(=O)N1CC2CNC(C2)C1 (stereo not drawn) | ≤ 50 | 3.4 |  |  |  |  |
| Cc1coc(C(=O)N2C[C@@H]3CN[C@@H](C3)C2)c1 | ≤ 50 | 51.6 | 29.4 |  |  |  |
| O=C(c1ccno1)N1C[C@H]2CN[C@H](C2)C1 | ≤ 50 | 11.4 | 10.2 |  |  |  |
| O=C(c1cnco1)N1C[C@H]2CN[C@H](C2)C1 | ≤ 50 | 14 | 13 |  |  |  |
| Cc1nocc1C(=O)N1CC2CCNC2C1 (stereo not drawn) | ≤ 50 | 639 |  |  | 222 |  |
| COc1cc(C(=O)N2CC3CNC(C3)C2)on1 (stereo not drawn) | ≤ 50 | 3.7 | 5 |  |  |  |
| N#Cc1coc(C(=O)N2C[C@@H]3CN[C@@H](C3)C2)c1 | ≤ 50 | 48.6 | 23.6 |  |  |  |
| O=C(c1cc(Br)no1)N1CC2CNC(C2)C1 (stereo not drawn) | ≤ 50 | 2.8 | 3.4 |  |  |  |
| Cc1ncoc1C(=O)N1C[C@H]2CN[C@H](C2)C1 | ≤ 50 | 4.6 | 8.9 |  |  |  |
| O=C(c1ccncc1)N1CC2CNC(C2)C1 (stereo not drawn) | ≤ 50 | 29.7 |  |  |  |  |
| Cc1ncoc1C(=O)N1CC2CCNCC2C1 (stereo not drawn) | ≤ 50 | 213 |  |  | 952 |  |
| CC(C)c1cc(C(=O)N2C[C@@H]3CN[C@@H](C3)C2)on1 | ≤ 50 | 724 |  |  | 470 |  |
| O=C(c1ccc(Cl)o1)N1C[C@@H]2CN[C@@H](C2)C1 | ≤ 50 | 27.1 | 39.6 |  |  |  |
